The source of these data is patent US20230027495A1, “METHODS OF TREATING CANCER WITH A COMBINATION OF AN ANTI-PD-1 ANTIBODY AND AN ANTI-TISSUE FACTOR ANTIBODY-DRUG CONJUGATE” (Genmab A/S, priority 2019, published 2023).

“Also recorded” adds a separate entry of the source.

Data set [1] has as its system human peripheral blood mononuclear cells (PBMCs). As to the kind of experiment: T cell activation in CSFE labeled human PBMCs fed drug-killed MDA-MB-231 cells, with or without pembrolizumab. The data set is classed as cell-based. The settings on record: PBMCs fed drug-exposed MDA-MB-231 cells, 48 hours. The text has this:
Induction of the innate immune response following exposure to cancer cells undergoing ICD sets up secondary T cell activation, which can be enhanced by concomitant pembrolizumab treatment.

Data set [2] deals with murine tumor cells that stably express human TF. As to the kind of experiment: Immunization of Balb/c mice with drug-killed human TF positive murine tumor cells, then tumor challenge (syngeneic model). The data set is classed as in vivo. As to conditions: mice immunized with drug-killed human TF positive tumor cells. The method, then:
Mouse tumor cells are transfected with plasmid constructs encoding human tissue factor (TF) and sgRNA-guided Cas9 nuclease (sgRNA/Cas9) to generate a murine cell line that expresses the human TF. Fluorescence activated cell sorting (FACS) yields a clonal population of murine tumor cells that stably express human TF, these cells are then treated with 1 μg to 5 μg per ml of tisotumab vedotin or 100 nM of MMAE for 4 days. In order to prepare dying cells for immunization, treated murine tumor cells are overlaid atop Histopaque, and centrifuged at 2000 g for 30 minutes. Dead and dying cells are pelleted underneath the Histopaque layer, and viability assessed by trypan blue exclusion. A sample with approximately <20% live cells as measured by trypan blue exclusion is obtained. Flash-frozen tumor cells are prepared by submerging the cells in liquid nitrogen for 10 seconds, followed by immersion in 37° C. water until completely thawed. The liquid nitrogen freeze-thaw process is repeated 5 times. Dead and dying human TF positive tumor cells are resuspended in phosphate buffered saline (PBS) and 2×10^6 cells are injected into the peritoneum of immune-competent Balb/c mice. Seven days later, mice receive a second immunization with dead and dying cells prepared in the same manner.
Fourteen days after initial immunization with the dead and dying human TF positive tumor cells, mice are subcutaneously implanted with 5×10^6 wild-type tumor cells and monitored for tumor growth. […] As these effects occur in the absence of any administered therapeutic agent, the administration of cells killed by tisotumab vedotin or MMAE is sufficient to generate long-lasting protective immune memory against subsequent tumor cell challenge. Protective immune memory is amplified by treating these mice with tisotumab vedotin in combination with an antibody that binds to murine PD-1.

The subject of data set [3] is HPAFII (pancreatic carcinoma) and MDA-MB-231 (breast carcinoma) cells. As to the kind of experiment: Western blot of ER stress pathways in HPAFII and MDA-MB-231 cells. The data set is classed as cell-based. The method, then: Induction of cell death and release of ICD danger signals occurs concomitant with initiation of an ER stress response. Two Tissue Factor positive cell lines, HPAFII (pancreatic carcinoma) and MDA-MB-231 (breast cell carcinoma) were exposed to tisotumab vedotin ADC, an Isotype-MMAE ADC (H00-MMAE, IgG1 MMAE), or free MMAE for 18 hours and induction of ER stress monitored by western blot analysis. Phosphorylation of inositol-requiring transmembrane kinase/endonuclease 1 (IRE1) was detected after treatment with tisotumab vedotin ADC or MMAE free drug (FIG. 6). […] The ability for auristatins to prime the immune system to recognize tumor antigens opens the door for a myriad of combinatorial therapeutic options.

The test system of data set [4] is relapsed, recurrent, and/or metastatic cervical cancer. The settings on record: cited from earlier work.
Data set [5] deals with MDA-MB-231 xenograft. As to the kind of experiment: MDA-MB-231 xenograft model in humanized NSG mice. The data set is classed as in vivo. The method, then:
The in vivo anti-tumor efficacy of tisotumab vedotin in combination with an anti-PD-1 monoclonal antibody was evaluated in NOD.Cg-PrkdC^scid Il2rg^tm1Wj1/SzJ (NSG) immunodeficient mice (The Jackson Laboratory, Stock No. 005557), humanized by engraftment with human CD34^+ hematopoietic stem cells (Jackson Laboratories, Sacramento). Mice were subcutaneously inoculated with 5×10^6 MDA-MB-231 cells (breast adenocarcinoma; American Tissue Culture Collection (ATCC), cat. no. HTB-26), in 100 μL phosphate-buffered saline (PBS). Before inoculation, cells were cultured in DMEM with high glucose and HEPES without L-glutamine (Lonza, cat. no. BE12-709F), 10% (v/v) donor bovine serum with iron New Zealand Origin (Thermo Fisher Scientific, DBSI, cat. no. 10371-029), 2 mM L-glutamine (Lonza, cat. no. BE17-605E), 1 mM Na-pyruvate (Lonza, cat. no. BE13-115E), MEM non-essential amino acids (Life Technologies, cat. no. 11140) and 1% (v/v) penicillin/streptomycin (Lonza, cat. no. DE17-603E), in CellSTACK culture chambers (Corning, cat. no. 3313).
Tumor size was determined by caliper measurement at least two times a week and tumor volume was calculated as 0.52×length×width^2. When tumors reached the size of 100 mm^3 mice were randomized in 7 groups (8 mice per treatment group) based on mouse cohort and tumor size (Table 1). Mice were treated with tisotumab vedotin alone (1 mg/kg or 0.5 mg/kg), intravenously, weekly for a maximum of five treatments, or in combination with an anti-PD-1 antibody (i.e., pembrolizumab, KEYTRUDA®, 50 mg concentrate, Merck & Co., Inc., Kenilworth, N.J. USA) or with anti-PD-1 antibody alone. The first dose of the anti-PD-1 antibody (i.e., pembrolizumab) was 10 mg/kg, followed by 5 mg/kg every five days for a maximum of six treatments. Mice in control groups were administered 1 mg/kg of IgG1 isotype control antibody or IgG1 isotype control antibody conjugated to MMAE intravenously, weekly for a maximum of five treatments (Table 1). The IgG1 isotype control antibody is the b12 antibody which is known to bind to HIV-1 gp120. […]
A general note: A xenograft is tissue or cells of one species grown in another, often human tumour cells in immunodeficient mice.

Data set [6] has as its system Tissue Factor positive cell lines. As to the kind of experiment: Cell death and ATP/HMGB1 release from Tissue Factor positive cell lines. The class given is cell-based. The settings on record: for activity across multiple Tissue Factor positive cell lines: release of ICD related molecules. The text has this:
Auristatin ADC payloads disrupt the microtubule networks resulting in altered ER localization and function, which ultimately results in ER stress.

For data set [7], the system named is human peripheral blood mononuclear cells (PBMCs). As to the kind of experiment: Monocyte/macrophage activation in human PBMCs fed drug-killed MDA-MB-231 cells. The data set is classed as cell-based. From the text:
FIGS. 7A and 7B is a series of graphs in which Tissue Factor positive MDA-MB-231 cells killed with various agents were fed to human peripheral blood mononuclear cells (PBMCs) and immune activation assessed by increased expression of activations markers on innate CD14+ monocyte/macrophages and induction of chemokine and cytokine production.
Immunogenic cell death, as mediated by MMAE, is regulated cell death that activates adaptive immune responses against antigens from dead and dying tumor cells, and allows for the generation of robust innate immune cell activation and subsequent cytotoxic T cell responses targeted towards specific tumor cell antigens. […] Furthermore, these monocyte/macrophages conditioned by ICD-killed cells promote activation of T cells, as evidenced by production of signature inflammatory cytokines associated with cytotoxic T cell responses.

The mark [8] stands for this setting: HPAFII and MDA-MB-231 cells, 18 hours.
The mark [9] stands for this setting: subjects who received tisotumab vedotin.

On to tisotumab, for which, in data set [1], the “T cell proliferation (CSFE dilution)” value was “did not elicit these responses”, the “production of IFNγ” value was “did not elicit these responses” and the “production of IL12p70” value is recorded as “did not elicit these responses”.
For the substance “tisotumab vedotin: antibody-drug conjugate comprising an antibody that binds to tissue factor (TF), a protease-cleavable linker, and the microtubule disrupting agent MMAE”, in data set [2], the “survival after challenge with wild-type tumor cells” value is on record as “increased survival” and the “tumor growth after challenge with wild-type tumor cells” value is listed as “delayed tumor growth”. In data set [3] (setting [8]), the “activation of JNK (phosphorylation)” value was “increased phosphorylation”, the “activation of PERK pathway (ATF4 cleavage)” value is recorded as “upregulation of ATF4 cleavage” and the “phosphorylation of IRE1” value is on record as “detected”. Also, the “activation of ER stress pathways (phosphorylation of IRE and JNK, cleavage of ATF4)” value in data set [3] (HPAFII or MDA-MB-231 cells, 16 hours) is given as “trigger multiple ER stress pathways”. In data set [4] (2.0 mg/kg tisotumab vedotin), the efficacy result was “robust efficacy” and the safety profile result was “manageable safety profile”. Further, the “grade of epistaxis cases” value in data set [4] (nearly all of the cases) is “grade 1”. Besides, in data set [4] (setting [9]), the “grade of the majority of reported peripheral neuropathy cases” value is reported as “grade 1-2”, the “peripheral neuropathy as cause of permanent discontinuation” value is listed as “leading cause of permanently discontinuation” and the “subjects with peripheral neuropathy” value is “approximately 35%”. In addition, in data set [4] (tisotumab vedotin alone), the “AEs of grade 1-2 conjunctivitis” value is recorded as “frequently reported”. For the same substance, in data set [4] (tisotumab vedotin), the “clinically relevant perturbations in aPTT or PT” value is “have not been observed” and the “epistaxis (bleeding AE) frequency” value is on record as “most common reported AE”. In data set [1], the “T cell proliferation (CSFE dilution)” value was “drove T cell proliferation”, the “production of IFNγ” value was “increased; also recorded: production of T cell specific cytokines” and the “production of IL12p70” value was “increased; also recorded: production of T cell specific cytokines”. The “tumor burden as assessed by tumor volume” value in data set [5] (tisotumab vedotin 0.5 mg/kg IV weekly) is listed as “efficiently reduced tumor burden”. Besides, in data set [5] (tisotumab vedotin 1.0 mg/kg IV weekly), the “tumor burden as assessed by tumor volume” value was “efficiently reduced tumor burden”. In data set [6] (Tissue Factor positive cells), the ATP secretion/release result was “drove robust A) ATP secretion; also recorded: release the ICD related molecules”, the HMGB1 release result is given as “HMGB1 release; also recorded: release the ICD related molecules” and the cell death entry is “undergo cell death”. Further, the “activity across multiple Tissue Factor positive cell lines” value in data set [6] was “occurs across multiple Tissue Factor positive cell lines”. The “activity across multiple Tissue Factor positive cell lines” value in data set [6] (listed as Tisotumab vedotin) is given as “active on multiple Tissue Factor positive cell lines”. For the same substance, in data set [7] (CD14+ monocyte/macrophages, flow cytometry, PBMCs fed killed MDA-MB-231 cells, compared to IgG1-MMAE ADC or tisotumab alone), the “monocyte/macrophage activation by CD86 expression” value is listed as “drove monocyte/macrophage activations”. Moreover, the “release of innate chemokines” value in data set [7] (PBMCs fed killed MDA-MB-231 cells, compared to IgG1-MMAE ADC or tisotumab alone) is listed as “induced release of innate chemokines including MIP10”. The “chemotactic and inflammatory mediators from monocyte/macrophages” value in data set [7] (after uptake of killed Tissue Factor positive cells) was “elicit strong chemotactic and inflammatory mediators”.
